The source of these data is patent US8303964B2, “Viable non-toxic gram-negative bacteria” (priority 2006, dated 2012).

The term kcat denotes the maximal rate divided by the concentration of active sites. For orientation: Km means the substrate concentration at which the rate is half of its maximum.

In brackets after ≈: the same amount, converted by molar mass. Like-named read-outs stand apart in the source and are kept apart here. Bridge positions count the residues as written; N and C are the ends. Square brackets hold non-standard residues; d marks the D form. Peptide text beside a SMILES is read from it. * marks the point of attachment. Ileψ(thiazoline)Cys = CC[C@H](C)[C@H](N)C1=N[C@H](C(=O)*)CS1; dOrn = NCCC[C@@H](N)C(=O)O Some results are limits rather than exact numbers.

For one data set, the target named is kdsD (Escherichia coli, UniProt P45395). As to conditions: cited from earlier work; for kcat / Km: kdsD; for kcat: A5P to Ru5P or Ru5P to A5P, labelled by substrate.
Sequence of kdsD (P45395 whole entry): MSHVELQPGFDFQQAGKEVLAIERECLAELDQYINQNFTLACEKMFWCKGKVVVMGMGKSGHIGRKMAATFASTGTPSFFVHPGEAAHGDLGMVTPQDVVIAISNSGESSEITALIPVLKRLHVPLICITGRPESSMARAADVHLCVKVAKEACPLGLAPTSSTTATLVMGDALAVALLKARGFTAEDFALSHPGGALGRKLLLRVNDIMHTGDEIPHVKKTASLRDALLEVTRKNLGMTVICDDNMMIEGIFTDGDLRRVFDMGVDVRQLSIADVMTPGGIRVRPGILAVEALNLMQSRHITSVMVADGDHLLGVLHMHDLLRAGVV
For another data set, the system named is KPM22. In words: microbe, parasite or virus in culture. As to conditions: for MIC: Escherichia coli, read-out: Minimum Inhibitory Concentration KPM22. It is filed as cell-based, E. coli. The method, then:
(§1) The antibiotics used were from Sigma with the exception of cephaloridine, which was obtained from MicroSource Discovery Systems. Antibiotics were chosen based on their varying mode of action and entry into the cell. […] Colonies from LB agar plate were scraped and suspended in media (˜10^4 cells per mL) with varying concentrations of antibiotics. Cultures were incubated with shaking (˜200 rpm) at 37° C. for 18 hours at which point growth was scored by visual inspection.

Another data set deals with BW30270. The data set is described as follows: microbe, parasite or virus in culture. It is filed as cell-based, E. coli K-12. As to conditions: LB media, 37° C., 18 hours, lowest concentration that completely inhibited growth; for MIC: Escherichia coli, read-out: Minimum Inhibitory Concentration BW30270. Here is the method: as §1
The next data set has as its target gutQ (Escherichia coli, UniProt P17115). As to conditions: for alternate substrate, product appearance: determined by 31P-NMR. Here is the method: This example describes enzyme assays used in experiments conducted during the course of the present invention. […] All plates contained internal Ru5P standards and appropriate A5P controls in triplicate. One unit of enzyme activity is defined as the conversion of 1 μmol of sugar phosphate per minute at 37° C.
This example describes the characterization of gutQ. […] After 10 minutes at 37° C., reactions containing the potential alternate substrates D-arabinose, D-ribose 5-phosphate, D-glucose 6-phosphate (G6P), D-glucose 1-phosphate, D-glucosamine 6-phosphate, or D-mannose 6-phosphate were quenched and the presence of ketose was determined. Product appearance for D/L-glyceraldehyde 3-phosphate, D-erythrose 4-phosphate, and D-fructose 6-phosphate was assayed by ^31P NMR. Kinetic constants were determined at 37° C. using the discontinuous microplate assay and were initiated by the addition of substrate. Concentrations typically ranged from 0.2Km to 10Km. […] Initial rates (v0) were determined in triplicate and fit to the standard Michaelis-Menten equation using nonlinear least-squares regression to determine Km and kcat values for both the formation and disappearance of Ru5P.

Substrate in data set [1]: O=C(CO)[C@H](O)[C@H](O)COP(=O)(O)O
In words: purified protein, by the assay type. Conditions: other: gutQ, 37° C., pH 8.25.

Substrate in data set [2]: O=C[C@@H](O)[C@H](O)[C@H](O)COP(=O)(O)O
In words: purified protein, by the assay type. As to conditions: other: gutQ, 37° C., pH 8.25.

Setting [3] is: LB media, 37° C., 18 hours, lowest concentration that completely inhibited growth.

Consider `O=C[C@@H](O)[C@H](O)[C@H](O)COP(=O)(O)O` [A5P, d-arabinose 5-phosphate], for which, on kdsD, the kcat is 157 ± 4 s⁻¹ and the Km is 610 ± 60 µM.

For `CC1(C)S[C@@H]2[C@H](NC(=O)[C@H](N)c3ccccc3)C(=O)N2[C@H]1C(=O)O` [Ampicillin], in the data set on KPM22, the “Fold Difference in MIC” value is 2 fold. The values for the MIC in the data set on KPM22 (18 h) and in the data set with BW30270 were 2 µg/mL (≈ 5.72 µM) and 4 µg/mL (≈ 11.4 µM), respectively.

Take `CC[C@H](C)[C@H](N)C1=N[C@H](C(=O)N[C@@H](CC(C)C)C(=O)N[C@H](CCC(=O)O)C(=O)N[C@H](C(=O)N[C@H]2CCCCNC(=O)[C@H](CC(N)=O)NC(=O)[C@@H](CC(=O)O)NC(=O)[C@H](Cc3cnc[nH]3)NC(=O)[C@@H](Cc3ccccc3)NC(=O)[C@H]([C@@H](C)CC)NC(=O)[C@@H](CCCN)NC2=O)[C@@H](C)CC)CS1` [Bacitracin] ({Ileψ(thiazoline)Cys}-L[dE]IK[dOrn]I[dF]H[dD]N; lactam 4-C): the “Minimum Inhibitory Concentration KPM22” value with KPM22 (setting [3]) amounted to 512 µg/mL. Moreover, the “Fold Difference in MIC” value in the data set with KPM22 (MIC BW30270 versus MIC KPM22) worked out at 8 fold. For the same molecule, the “Minimum Inhibitory Concentration BW30270” value in the data set on BW30270 was 4096 µg/mL.

As to `O=C(Cc1cccs1)N[C@@H]1C(=O)N2C(C(=O)[O-])=C(C[n+]3ccccc3)CS[C@H]12` [Cephaloridine], the MIC in the data set with KPM22 (setting [3]) and in the data set on BW30270 was 4 µg/mL (≈ 9.63 µM) each time. The “Fold Difference in MIC” value in the data set on KPM22 (MIC BW30270 versus MIC KPM22) worked out at 1 fold.

As to `O=C(N[C@H](CO)[C@H](O)c1ccc([N+](=O)[O-])cc1)C(Cl)Cl` [Chloramphenicol], the MIC with KPM22 (setting [3]) was determined as 2 µg/mL (≈ 6.19 µM); in the data set on BW30270, 8 µg/mL (≈ 24.8 µM).

As to `O=C[C@H](O)[C@H](O)COP(=O)(O)O` [D-erythrose 4-phosphate], at gutQ, the “alternate substrate, product appearance” value was “served as alternate substrates”.

Consider `O=C(CO)[C@@H](O)[C@H](O)[C@H](O)COP(=O)(O)O` [D-fructose 6-phosphate], for which the “alternate substrate, product appearance” value on gutQ is listed as “served as alternate substrates”.

As to `O=CC(O)COP(=O)(O)O` [D/L-glyceraldehyde 3-phosphate], on gutQ, the “alternate substrate, product appearance” value is on record as “served as alternate substrates”.

In the case of `O=C(O)CN(CCN(CC(=O)O)CC(=O)O)CC(=O)O` [EDTA], the “Activation by EDTA” value at kdsD and at gutQ was “Yes” throughout.

In the case of `CC[C@H]1OC(=O)[C@H](C)[C@@H](O[C@H]2C[C@@](C)(OC)[C@@H](O)[C@H](C)O2)[C@H](C)[C@@H](O[C@@H]2O[C@H](C)C[C@H](N(C)C)[C@H]2O)[C@](C)(O)C[C@@H](C)C(=O)[C@H](C)[C@@H](O)[C@]1(C)O` [Erythromycin], the MIC in the data set with KPM22 (setting [3]) turned out to be 1 µg/mL (≈ 1.36 µM).

For the molecule `CC(=O)O[C@H]1C[C@@]2(C)[C@@H](C[C@@H](O)[C@H]3[C@@]4(C)CC[C@@H](O)[C@@H](C)[C@@H]4CC[C@@]32C)/C1=C(\CCC=C(C)C)C(=O)O` [Fusidic Acid], the MIC came out at 2 µg/mL (≈ 3.87 µM) with KPM22 (setting [3]) and 512 µg/mL (≈ 991 µM) in the data set with BW30270. Moreover, the “Fold Difference in MIC” value in the data set on KPM22 (MIC BW30270 versus MIC KPM22) came out at 256 fold.

Take `NC[C@H]1O[C@H](O[C@H]2[C@H](O)[C@@H](O[C@H]3O[C@H](CO)[C@@H](O)[C@H](N)[C@H]3O)[C@H](N)C[C@@H]2N)[C@H](O)[C@@H](O)[C@@H]1O` [Kanamycin]: the MIC came out at 1 µg/mL (≈ 2.06 µM) with KPM22 (setting [3]) and 16 µg/mL (≈ 33 µM) with BW30270. Moreover, in the data set on KPM22 (MIC BW30270 versus MIC KPM22), the “Fold Difference in MIC” value is reported as 16 fold.

On to `CO[C@@H]1[C@@H](OC(N)=O)[C@@H](O)[C@H](Oc2ccc3c(O)c(NC(=O)c4ccc(O)c(CC=C(C)C)c4)c(=O)oc3c2C)OC1(C)C` [Novobiocin], for which the MIC with KPM22 (setting [3]) is 1 µg/mL (≈ 1.63 µM).

In the case of `CO[C@H]1/C=C/O[C@@]2(C)Oc3c(C)c(O)c4c(O)c(c(/C=N/N5CCN(C)CC5)c(O)c4c3C2=O)NC(=O)/C(C)=C\C=C\[C@H](C)[C@H](O)[C@@H](C)[C@@H](O)[C@@H](C)[C@H](OC(C)=O)[C@@H]1C` [Rifampin], in the data set on BW30270, the MIC was 16 µg/mL (≈ 19.4 µM).

Consider `O=C(CO)[C@H](O)[C@H](O)COP(=O)(O)O` [Ru5P, D-ribulose 5-phosphate], for which, at kdsD, the kcat was 255 ± 16 s⁻¹ and the Km was 350 ± 80 µM.

For the molecule `CCCCCCCCCCCCOS(=O)(=O)[O-].[Na+]` [Sodium dodecyl sulfate (SDS), Sodium dodecyl sulfate], the results for the MIC with KPM22 (setting [3]) and with BW30270 were 8 µg/mL and over 32000 µg/mL, respectively. The “Fold Difference in MIC” value with KPM22 (MIC BW30270 versus MIC KPM22, listed as sodium dodecyl sulfate, sulfate) is on record as over 4000 fold; in the data set with KPM22 (MIC BW30270 versus MIC KPM22, sulfate), over 4000 fold.

As for `CN[C@H](CC(C)C)C(=O)N[C@H]1C(=O)N[C@@H](CC(N)=O)C(=O)N[C@H]2C(=O)N[C@H]3C(=O)N[C@H](C(=O)N[C@H](C(=O)O)c4cc(O)cc(O)c4-c4cc3ccc4O)[C@H](O)c3ccc(c(Cl)c3)Oc3cc2cc(c3O[C@@H]2O[C@H](CO)[C@@H](O)[C@H](O)[C@H]2O[C@H]2C[C@](C)(N)[C@H](O)[C@H](C)O2)Oc2ccc(cc2Cl)[C@H]1O` [Vancomycin], the values for the MIC in the data set with KPM22 (setting [3]) and with BW30270 were 32 µg/mL (≈ 22.1 µM) and 256 µg/mL (≈ 177 µM), respectively.

With `[Zn+2]` [Zn^2+], the “Inhibition by 10 μM Zn^2+” value at kdsD and at gutQ was “Yes” each time.

As to Polymyxin E, the “Minimum Inhibitory Concentration KPM22” value in the data set with KPM22 (setting [3]) was 0.06 µg/mL. Besides, in the data set with KPM22 (MIC BW30270 versus MIC KPM22), the “Fold Difference in MIC” value is recorded as about 4 fold. The “Minimum Inhibitory Concentration BW30270” value in the data set with BW30270 is 0.25 µg/mL.

B1: gutQ (Escherichia coli K-12) (protein)
chain: MSEALLNAGRQTLMLELQEASRLPERLGDDFVRAANIILHCEGKVVVSGIGKSGHIGKKIAATLASTGTPAFFVHPAEALHGDLGMIESRDVMLFISYSGGAKELDLIIPRLEDKSIALLAMTGKPTSPLGLAAKAVLDISVEREACPMHLAPTSSTVNTLMMGDALAMAVMQARGFNEEDFARSHPAGALGARLLNKVHHLMRRDDAIPQVALTASVMDAMLELSRTGLGLVAVCDAQQQVQGVFTDGDLRRWLVGGGALTTPVNEAMTVGGTTLQSQSRAIDAKEILMKRKITAAPVVDENGKLTGAINLQDFYQAGII
On to B1, for which, in data set [1], the Km is 640 ± 80 µM and the kcat is 242 ± 11 s⁻¹. In addition, in data set [2], the Km was 1200 ± 100 µM and the kcat turned out to be 218 ± 4 s⁻¹.
